Counter-ions that a name gives are not always drawn.
Test system: MTT (mouse pheochromocytoma)
Experiment: IC50 of cell viability (ATP content)
Details: (24 or 48 h)
Outline: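 MTT mouse pheochromocytoma cells (5 µl of 200,000 cells/ml per well, white 1536-well plates, DMEM with 5% FBS and 1% horse serum) were cultured overnight at 37°C, 5% CO2. They then received 23 nl library compound in DMSO by pintool at 8 concentrations (final 0.5 nM to 46 µM) for 24 or 48 hrs. CellTiter-Glo ATP luminescence was read after 15 minutes. Signals were normalised to positive-control (100% inhibition) and DMSO (0%) wells, and IC50 came from a four-parameter logistic fit.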

Structure (SMILES) | IC50 of cell viability
CC(C)[C@H](N)C(=O)OCCOCn1cnc2c(O)nc(N)nc21 [Valacyclovir hydrochloride] | > 46 µM
CCCC(CCC)C(=O)O [Valproic acid] | > 46 µM
CCN(CC)C(=O)c1ccc(O)c(OC)c1 [Vanillic acid diethylamide] | > 46 µM
COc1cc(C(=S)N2CCOCC2)ccc1O [Vanitiolida] | > 46 µM
c1cnc2cc3c(cc2n1)C1CNCC3C1 [Varenicline] | > 46 µM
CC=1C2=CC3=N/C(=C/C4=C(C(=C(N4)/C=C/5\N=C(/C=C(/C1CCC(=O)O)\N2)C(=C5C)CCC(=O)OC)C=C)C)/C6=CC=C([C@H]([C@]36C)C(=O)OC)C(=O)OC.CC1=C2/C=C/3\N=C(/C=C/4\C(=C(/C(/N4)=C/C5=N/C(=C\C(=C1CCC(=O)OC)N2)/C(=C5C)CCC(=O)O)C=C)C)C6=CC=C([C@H]([C@]36C)C(=O)OC)C(=O)OC [Verteporfin] | > 46 µM
CC[C@@]1(O)CC2CN(CCC3=C([NH]C4=CC=CC=C34)[C@](C2)(C(=O)OC)C5=C(OC)C=C6N(C)C7[C@](O)([C@H](O)[C@]8(CC)\C=C/CN9CC[C@@]7([C@H]89)C6=C5)C(N)=O)C1 (stereo partly specified) [Vindesine Sulfate Salt] | > 46 µM
O=C(O)CCCCC1SCC2NC(=O)NC21 (stereo unspecified) [Vitamin B7] | > 46 µM
CC(=O)Oc1c(C)c(C)c2c(c1C)CC[C@@](C)(CCC[C@H](C)CCC[C@H](C)CCCC(C)C)O2 [Vitamin E acetate] | > 46 µM
CC(=O)CC(C1=CC=CC=C1)C/2=C(O)/C3=CC=CC=C3OC2=O (stereo unspecified) [WARFARIN] | > 46 µM
FC(F)(F)c1cccc(C2=CCN(CCc3ccc4ccccc4c3)CC2)c1 [XALIPRODEN HYDROCHLORIDE] | > 46 µM
O=C(NCCNCC(O)COc1ccc(O)cc1)N1CCOCC1 (stereo unspecified) [XAMOTEROL] | > 46 µM
CC1=CC=CC(=C1N\C2=N\CCCS2)C [XYLAZINE] | > 46 µM
CN(CCO)CC(O)Cn1cnc2c1c(=O)n(C)c(=O)n2C.O=C(O)c1cccnc1 (stereo unspecified) [Xanthinol niacinate] | > 46 µM
Cc1cccc(C)c1NC(=O)NC1=CCCN1C [Xilobam] | > 46 µM
CCOC(=O)CN[C@@H](C(=O)N1CC[C@H]1C(=O)NCc1ccc(/C(N)=N/O)cc1)C1CCCCC1 [Ximelagatran] | > 46 µM
Cc1cccc(C)c1NC(=O)c1cc([S+](N)(=O)[O-])c(Cl)cc1O [Xipamide] | > 46 µM

Structure (SMILES) | IC50 of cell viability
OC1OC[C@@H](O)[C@H](O)[C@@H]1O (stereo partly specified) [Xylose] | > 46 µM
O=C(CCC1CCN(Cc2ccccc2)CC1)c1ccc2c(c1)NCCCC2 [ZANAPEZIL FUMARATE] | > 46 µM
COc1ccc(CCN(C)CCCN2CCc3cc(OC)c(OC)cc3CC2=O)cc1OC [ZATEBRADINUM] | > 46 µM
O=C(O)Cc1ccc(OCCNC[C@H](O)c2ccccc2)cc1 [ZD 2079] | > 46 µM
O=C([O-])c1ccccc1O [ZINC SALICYLATE] | > 46 µM
CC(CSC(=O)c1ccccc1)C(=O)N1CC(Sc2ccccc2)CC1C(=O)[O-] (stereo unspecified) [ZOFENOPRIL Calcium Salt] | > 46 µM
Cc1ccc(-c2nc3ccc(C)cn3c2CC(=O)N(C)C)cc1 [ZOLPIDEM] | > 46 µM
Cc1cc(CC(=O)O)n(C)c1C(=O)c1ccc(Cl)cc1 [ZOMEPIRAC SODIUM] | > 46 µM
COc1cc(N)c(Cl)cc1C(=O)NC1CN2CCC1CC2 (stereo unspecified) [Zacopride hydrochloride] | > 46 µM
COc1cc(C(=O)NS(=O)(=O)c2ccccc2C)ccc1Cc1cn(C)c2ccc(NC(=O)OC3CCCC3)cc12 [Zafirlukast] | > 46 µM
CCN(C(C)=O)c1cccc(-c2ccnc3c(C#N)cnn23)c1 [Zaleplon] | > 46 µM
Oc1cc2cc(CCN3CCN(c4nsc5ccccc45)CC3)c(Cl)cc2[nH]1 [Zaprasidone] | > 46 µM
CCCOC1=C(C=CC=C1)\C2=N\C(=O)C3=C([NH]N=N3)N2 [Zaprinast] | > 46 µM
C[C@H]1CCC[C@H](O)CCCCCc2cc(O)cc(O)c2C(=O)O1 [Zearalanol] | > 46 µM
N=C(N)NCCCC(NC(=O)C1CCCN1C(=O)C1CSSCC(N)C(=O)NC(Cc2ccc(O)cc2)C(=O)NC(Cc2ccccc2)C(=O)NC(CCC(N)=O)C(=O)NC(CC(N)=O)C(=O)N1)C(=O)NCC(N)=O (stereo unspecified) [[8-Arginine]vasopressin] | > 46 µM
NCCCCC(NC(=O)C1CCCN1C(=O)C1CSSCC(N)C(=O)NC(Cc2ccc(O)cc2)C(=O)NC(Cc2ccccc2)C(=O)NC(CCC(N)=O)C(=O)NC(CC(N)=O)C(=O)N1)C(=O)NCC(N)=O (stereo unspecified) [[Lys8]-Vasopressin] | > 46 µM

Results, then the molecule that gave them:

IC50 of cell viability | Structure (SMILES)
> 46 µM | CCC1NC(=O)C(NC(=O)c2ncccc2O)C(C)OC(=O)C(c2ccccc2)NC(=O)C2CC(=O)CCN2C(=O)C(Cc2ccccc2)N(C)C(=O)C2CCCN2C1=O (stereo unspecified) [VIRGINIAMYCIN]
> 46 µM | CCCCC(=O)O [Valeric acid]
> 46 µM | CCCCC(=O)[O-] [Valeric acid]
> 46 µM | CCCC(CCC)C(N)=O [Valpromide]
> 46 µM | CN[C@@H](CC(C)C)C(=O)N[C@@H]1C(=O)N[C@H](CC(N)=O)C(=O)N[C@H]2C(=O)N[C@@H]3C(=O)N[C@H](C(=O)N[C@H](C(=O)O)c4cc(O)cc(O)c4-c4cc3ccc4O)[C@H](O)c3ccc(c(Cl)c3)Oc3cc2cc(c3O[C@@H]2O[C@@H](CO)[C@@H](O)[C@@H](O)[C@H]2O[C@H]2C[C@](C)(N)[C@H](O)[C@H](C)O2)Oc2ccc(cc2Cl)[C@@H]1O [Vancomycin hydrochloride]
> 46 µM | COc1cc(C=O)ccc1O [Vanillin]
> 46 µM | c1cnc2cc3c(cc2n1)[C@@H]1CNC[C@@H]3C1 [Varenicline Tartrate]
> 46 µM | Clc1ccc(Nc2nnc(Cc3ccncc3)c3ccccc23)cc1 [Vatalanib Dihydrochloride]
> 46 µM | C=CCN1CCCC1CNC(=O)c1cc([S+](N)(=O)[O-])cc(OC)c1OC (stereo unspecified) [Veraliprida]
> 46 µM | COc1ccc(/C=N/NC(=O)c2ccncc2)cc1OC [Verazide]
> 46 µM | C=CS(=O)(=O)[O-] [Vinylsulfonic acid sodium salt solution]
> 46 µM | CC(C)=CCC/C(C)=C\CC/C(C)=C\CC/C(C)=C\CC1=C(C)C(=O)c2ccccc2C1=O [Vitamin K2]
> 46 µM | CC(c1ncncc1F)[C@](O)(Cn1cncn1)c1ccc(F)cc1F (stereo partly specified) [Voriconazole]
> 46 µM | CC(=O)CC(c1ccccc1)C1C(=O)Oc2ccccc2C1=O (stereo unspecified) [WARFARIN POTASSIUM]
> 46 µM | O=C(O)c1ccccc1-c1ccc(C(F)(F)F)cc1 [Xenalipin]
> 46 µM | CC1=CC(=CC(=C1C\C2=N\CCN2)C)C(C)(C)C [Xylometazoline hydrochloride]
> 46 µM | COC(=O)[C@@H]1[C@@H]2C[C@H]3c4[nH]c5ccccc5c4CCN3C[C@@H]2CC[C@@H]1O [Yohimbine]

IC50 of cell viability | Structure (SMILES)
> 46 µM | O.O=C(O)[C@H]1[C@H]2C[C@H]3c4[nH]c5ccccc5c4CCN3C[C@@H]2CC[C@@H]1O [Yohimbinic acid monohydrate]
> 46 µM | CC1(CN2CCC(n3c(=O)[nH]c4ccccc43)CC2)OCc2ccccc2-n2cccc21 (stereo unspecified) [ZALDARIDUM]
> 46 µM | CC1=C(/C=C/C(C)=C\C=C\C(C)=C\C=C\C=C(C)\C=C\C=C(C)\C=C\C2=C(C)C[C@@H](O)CC2(C)C)C(C)(C)C[C@H](O)C1 [ZEAXANTHIN]
> 46 µM | C\C1=C\N([C@H]2C[C@H](N=[N+]=[N-])[C@@H](CO)O2)C(=O)NC1=O [ZIDOVUDINE]
> 46 µM | C[C@H](CSC(=O)c1ccccc1)C(=O)N1C[C@@H](Sc2ccccc2)C[C@H]1C(=O)O [ZOFENOPRIL]
> 46 µM | CN(C)CCc1c[nH]c2ccc(CC3COC(=O)N3)cc12 (stereo unspecified) [ZOLMITRIPTAN]
> 46 µM | C[C@H](C(=O)O)c1ccc2c(c1)CC(=O)c1ccccc1S2 [Zaltoprofen]
> 46 µM | c1ccc(C(OC2CCCN(CCc3ccc4c(c3)OCO4)C2)c2ccccc2)cc1 (stereo unspecified) [Zamifenacin fumarate]
> 46 µM | CC(=O)NC1[C@H]([C@H](O)[C@H](O)CO)OC(C(=O)O)=C[C@H]1NC(=N)N (stereo partly specified) [Zanamivir]
> 46 µM | COC1=C(OC(F)F)C=CC(=C1)C/2=N/NC(=O)/C=C2 [Zardaverine]
> 46 µM | CN(C)C/C=C(/c1ccc(Br)cc1)c1cccnc1.Cl.Cl [Zimelidine dihydrochloride]
> 46 µM | Cl.O.O=C1Cc2cc(CCN3CCN(c4nsc5ccccc45)CC3)c(Cl)cc2N1 [Ziprasidone hydrochloride monohydrate]
> 46 µM | O=P(O)(O)C(O)(Cn1ccnc1)P(=O)(O)O [Zoledronic acid]
> 46 µM | N[S+](=O)([O-])Cc1noc2ccccc12 [Zonisamide]
> 46 µM | CN(C)CCOC1=Cc2ccccc2Sc2ccc(Cl)cc21 [Zotepine]
> 46 µM | OCCN1CCN(CC/C=C2\c3ccccc3Sc3ccc(Cl)cc32)CC1 [Zuclopenthixol hydrochloride]
